Data on four molecules can be found in PMC1851987, “Identification of the Endogenous Key Substrates of the Human Organic Cation Transporter OCT2 and Their Implication in Function of Dopaminergic Neurons” (PLoS ONE, 2007).

The subject of data set [1] is OCT2-transfected HEK-293 cells. Put plainly: Intracellular metabolite N-methyl-salsolinol after salsolinol incubation, OCT2-transfected HEK-293 cells. Type of data set: in vitro ADME, human. To be noted: mean±s.e.m., n = 3.
Data set [2] relates to SH-SY5Y cells. Put plainly: Intracellular metabolite N-methyl-salsolinol after salsolinol incubation, SH-SY5Y cells. Type of data set: in vitro ADME, human. To be noted: mean±s.e.m., n = 3. The text has this: (§1) Beyond its physiological neuromodulatory function, there is considerable interest in the pathophysiologic role of salsolinol. […] It has been hypothesized that especially N-methyl-salsolinol is etiologically involved in apoptotic nigral cell death in PD by promoting calcium-triggered disruption of mitochondrial permeability transition.[14]

Data set [3] relates to HTZ-146 cells. The data set is described as follows: Intracellular metabolite N-methyl-salsolinol after salsolinol incubation, HTZ-146 cells. It is filed as in vitro ADME, human. As to conditions: mean±s.e.m., n = 3.
From the text: as §1

Data set [4] has as its target T1, organic cation transporter OCT2 (wild-type 400R) (Homo sapiens, UniProt O15244, S270A).
T1 sequence (O15244 1-555 S270A): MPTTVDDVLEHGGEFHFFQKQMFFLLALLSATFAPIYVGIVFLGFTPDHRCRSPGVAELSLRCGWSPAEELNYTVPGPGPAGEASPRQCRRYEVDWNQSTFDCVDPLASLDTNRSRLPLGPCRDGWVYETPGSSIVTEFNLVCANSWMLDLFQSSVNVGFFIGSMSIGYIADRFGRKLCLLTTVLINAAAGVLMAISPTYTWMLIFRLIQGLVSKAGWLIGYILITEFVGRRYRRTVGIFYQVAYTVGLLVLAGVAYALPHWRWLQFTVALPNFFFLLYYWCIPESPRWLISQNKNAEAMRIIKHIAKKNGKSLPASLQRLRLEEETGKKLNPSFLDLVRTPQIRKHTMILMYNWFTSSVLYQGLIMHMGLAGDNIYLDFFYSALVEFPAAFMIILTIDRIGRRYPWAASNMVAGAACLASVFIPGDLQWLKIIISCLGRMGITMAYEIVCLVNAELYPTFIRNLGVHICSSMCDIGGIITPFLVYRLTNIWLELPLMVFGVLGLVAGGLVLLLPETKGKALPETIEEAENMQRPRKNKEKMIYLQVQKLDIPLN
The data set is described as follows: Specific uptake into OCT2 (wild-type) transfected HEK-293 cells vs empty vector, LC-MS-MS. As to conditions: 5 min of incubation with 10 µmol/l.

Data set [5] addresses T1, organic cation transporter OCT2 (wild-type 400R). As to conditions: cited from earlier work.
Substrate in data set [6]: O=C1NC(Cc2c[nH]cn2)C(=O)N2CCCC12
The data set is described as follows: Specific uptake into OCT1-transfected HEK-293 cells. Type of data set: cell-based, human. As to conditions: other: specific uptake, 1 min of loading, mean (s.e.m.); pH 7.4; 37.0 °C.

Substrate in data set [7]: O=C1NC(Cc2c[nH]cn2)C(=O)N2CCCC12
The data set is described as follows: Specific uptake into EMT-transfected HEK-293 cells. Type of data set: cell-based, human. As to conditions: other: specific uptake, 1 min of loading, mean (s.e.m.); pH 7.4; 37.0 °C.

Where [8] appears, read: 48 h incubation with 10 µmol/l salsolinol.
The mark [9] stands for this setting: 48 h incubation with 100 µmol/l salsolinol.

In the case of `CC1c2cc(O)c(O)cc2CCN1C` (stereo not shown) [N-methyl-salsolinol], the “intracellular concentration of the metabolite N-methyl-salsolinol” value in data set [1] (setting [8]) was 0.89±0.06 nmol/mg protein; in data set [1] (setting [9]), 7.56±0.41 nmol/mg protein; in data set [2] (setting [8]), 0.18±0.01 nmol/mg protein; in data set [2] (setting [9]), 1.28±0.11 nmol/mg protein; in data set [3] (setting [8]), 0.17±0.01 nmol/mg protein; in data set [3] (setting [9]), 1.16±0.06 nmol/mg protein. Besides, the “uptake rate relative to salsolinol” value in data set [4] was “about two-thirds”.
Consider `NCCc1ccc(O)c(O)c1` [dopamine], for which the OCT2-mediated transport entry in data set [5] is “no significant OCT2-mediated transport”.

B1: OCT1 (Homo sapiens) (protein)
chain: MPTVDDILEQVGESGWFQKQAFLILCLLSAAFAPICVGIVFLGFTPDHHCQSPGVAELSQRCGWSPAEELNYTVPGLGPAGEAFLGQCRRYEVDWNQSALSCVDPLASLATNRSHLPLGPCQDGWVYDTPGSSIVTEFNLVCADSWKLDLFQSCLNAGFLFGSLGVGYFADRFGRKLCLLGTVLVNAVSGVLMAFSPNYMSMLLFRLLQGLVSKGNWMAGYTLITEFVGSGSRRTVAIMYQMAFTVGLVALTGLAYALPHWRWLQLAVSLPTFLFLLYYWCVPESPRWLLSQKRNTEAIKIMDHIAQKNGKLPPADLKMLSLEEDVTEKLSPSFADLFRTPRLRKRTFILMYLWFTDSVLYQGLILHMGATSGNLYLDFLYSALVEIPGAFIALITIDRVGRIYPMAMSNLLAGAACLVMIFISPDLHWLNIIIMCVGRMGITIAIQMICLVNAELYPTFVRNLGVMVCSSLCDIGGIITPFIVFRLREVWQALPLILFAVLGLLAAGVTLLLPETKGVALPETMKDAENLGRKAKPKENTIYLKVQTSEPSGT
notes: The cDNAs encoding the organic cation transporters; expressed in transfected cells; host or cells: HEK-293, stably transfected, pcDNA3
As to B1, the Km in data set [6] is given as 655 (191) μmol/l.

B2: EMT (Homo sapiens) (protein)
chain: MPSFDEALQRVGEFGRFQRRVFLLLCLTGVTFAFLFVGVVFLGTQPDHYWCRGPSAAALAERCGWSPEEEWNRTAPASRGPEPPERRGRCQRYLLEAANDSASATSALSCADPLAAFPNRSAPLVPCRGGWRYAQAHSTIVSEFDLVCVNAWMLDLTQAILNLGFLTGAFTLGYAADRYGRIVIYLLSCLGVGVTGVVVAFAPNFPVFVIFRFLQGVFGKGTWMTCYVIVTEIVGSKQRRIVGIVIQMFFTLGIIILPGIAYFIPNWQGIQLAITLPSFLFLLYYWVVPESPRWLITRKKGDKALQILRRIAKCNGKYLSSNYSEITVTDEEVSNPSFLDLVRTPQMRKCTLILMFAWFTSAVVYQGLVMRLGIIGGNLYIDFFISGVVELPGALLILLTIERLGRRLPFAASNIVAGVACLVTAFLPEGIAWLRTTVATLGRLGITMAFEIVYLVNSELYPTTLRNFGVSLCSGLCDFGGIIAPFLLFRLAAVWLELPLIIFGILASICGGLVMLLPETKGIALPETVDDVEKLGSPHSCKCGRNKKTPVSRSHL
notes: as for B1
B2: in data set [7], the Km is on record as 126 (38) μmol/l.
